Earlier results in patent US20090241221A1, “TANDEM REAPEAT DNA CONSTRUCTS PRODUCING PROTEINS THAT ATTACK PLANT PATHOGENIC VIRUSES, FUNGI, AND BACTERIA BY DISRUPTING TRANSCRIPTION FACTORS ESSENTIAL FOR REPLICATION THEREOF IN PLANTS” (priority 2008, published 2009).

Test system: Magnaporthe grisea
Conditions: PA treated plants; doses in the range of 0.5 mg/mL; cited from earlier work

O=C(O)c1ccccn1 [picolinic acid, 2-pyridine carboxylic acid]
resistance against M. grisea: enhanced
